Measured values: patent US20250206757A1 (GASHERBRUM BIO, INC., priority 2022, published 2025)
pEC50: −log10 of the molar value.

Molecular target: GLP-1 Receptor (Homo sapiens, UniProt P43220)
Experiment: GLP-1R agonist cAMP stimulation assay (HEK293/GLP1R/CRE-LUC cells, HTRF cAMP dynamic 2 kit)
Type: cell-based
Conditions: HEK293/CRE-Luc cell line stably expressing the GLP-1 Receptor; 30 min incubation at 37° C.
In short: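 HEK293 cells stably expressing GLP-1R with CRE-Luc, 1000 cells/well in DPBS with 0.5 mM IBMX and 0.10% BSA, exposed to half-log compound dilutions for 30 min at 37 °C. cAMP measured by HTRF (665/615 nm) after 1 h at room temperature.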

GLP-1 Receptor, sequence (P43220 24-463): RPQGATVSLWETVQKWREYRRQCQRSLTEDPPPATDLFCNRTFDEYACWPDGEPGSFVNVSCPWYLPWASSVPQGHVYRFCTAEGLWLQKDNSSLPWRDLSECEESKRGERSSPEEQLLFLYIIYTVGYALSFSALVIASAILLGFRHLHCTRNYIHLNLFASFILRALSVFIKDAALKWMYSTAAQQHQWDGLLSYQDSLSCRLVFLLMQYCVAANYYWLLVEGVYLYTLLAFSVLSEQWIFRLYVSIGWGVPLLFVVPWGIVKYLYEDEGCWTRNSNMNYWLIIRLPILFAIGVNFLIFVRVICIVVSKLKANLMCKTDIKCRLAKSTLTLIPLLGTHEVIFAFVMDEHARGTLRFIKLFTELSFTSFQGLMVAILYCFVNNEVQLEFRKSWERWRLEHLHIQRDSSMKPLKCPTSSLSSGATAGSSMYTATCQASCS

Fc1cc(Cl)cc(F)c1CNc1nc2c(cc1C(F)(F)F)CCN(Cc1nc3cc(-c4nnc(C5CC5)[nH]4)ncc3n1C[C@@H]1CCO1)C2 [Compound 110, N-[(4-chloro-2,6-difluorophenyl)methyl]-7-{[6-(5-cyclopropyl-4H-1,2,4-triazol-3-yl)-3-{[(2S)-oxetan-2-yl]methyl}-3H-imidazo[4,5-c]pyridin-2-yl]methyl}-3-(trifluoromethyl)-5,6,7,8-tetrahydro-1,7-naphthyridin-2-amine]
pEC50: > 9.00
